Article PMC8587515, “Cytotoxic and Anti-Inflammatory Activities of Dihydroisocoumarin and Xanthone Derivatives from Garcinia picrorhiza” (Molecules, 2021)

Tests used:
[1] = biological target: T1, COX-1 (purified PGHS-1 from ram seminal vesicles) (Ovis aries, UniProt P05979); set-up: method as in PMID 32627543; conditions: at 20 µM; cited from earlier work
T1 construct: Purified PGHS-1 from ram seminal vesicles for COX-1; purchased Cayman Chemical Co., Ann Arbor, MI, USA; host or cells: ram seminal vesicles (tissue-purified)
T1 sequence (P05979 25-600): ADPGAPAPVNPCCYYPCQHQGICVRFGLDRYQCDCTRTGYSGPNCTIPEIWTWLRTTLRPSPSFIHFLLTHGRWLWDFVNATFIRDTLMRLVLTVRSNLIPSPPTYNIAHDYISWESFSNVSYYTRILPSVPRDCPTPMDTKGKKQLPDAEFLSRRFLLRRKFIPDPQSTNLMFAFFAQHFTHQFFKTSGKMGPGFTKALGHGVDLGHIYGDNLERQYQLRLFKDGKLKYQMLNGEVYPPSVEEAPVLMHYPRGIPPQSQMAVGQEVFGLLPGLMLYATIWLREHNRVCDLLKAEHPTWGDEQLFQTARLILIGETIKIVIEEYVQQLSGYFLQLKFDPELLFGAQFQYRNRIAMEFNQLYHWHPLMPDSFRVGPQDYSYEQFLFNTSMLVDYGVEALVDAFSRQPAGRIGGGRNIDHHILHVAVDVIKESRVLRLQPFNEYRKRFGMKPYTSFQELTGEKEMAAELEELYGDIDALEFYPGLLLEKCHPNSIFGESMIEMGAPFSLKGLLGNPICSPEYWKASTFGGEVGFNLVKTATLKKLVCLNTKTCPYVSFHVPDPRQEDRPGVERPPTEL

[2] = tested on: Hep G2 (human hepatocellular carcinoma); experiment: MTT cytotoxic activity assay, Hep G2; format: cell-based; conditions: HepG2, 72 h, mean ± SEM of three replicates
Experimental: (§1) The cytotoxic activity of the isolated compounds was evaluated using the MTT viability assay with doxorubicin as the positive control and the results are presented in Table 2.
(§2) The MTT colorimetric method was performed to evaluate cytotoxic activity of the isolated compounds against human epidermoid carcinoma (KB; ATCC CCL17), human cervical carcinoma (HeLa S3; ATCC CCL2-2), human colon adenocarcinoma (HT-29; ATCC HTB-38), human breast adenocarcinoma (MCF-7; ATCC HTB-22), and human hepatocellular carcinoma (Hep G2; ATCC HB-8065) cell lines according to the previous method. […] After centrifugation at 1400 rpm for 5 min at 4 °C, the supernatant was decanted and DMSO (100 µL/well) was added to allow formazan product solubilization, which was subsequently measured by a microplate reader (Tecan Trading AG, Switzerland) at wavelength 550 nm. […] The results are expressed as the mean values of three replicates for three independent experiments. IC50 values were determined by graphical analysis using SigmaPlot 10 (Systat Software Inc., San Jose, CA, USA), obtained by plotting the cell viability percentage versus sample concentration.

[3] = tested on: HeLa S3 (human cervical carcinoma); experiment: MTT cytotoxic activity assay, HeLa S3; format: cell-based; conditions: 72 h, mean ± SEM of three replicates
Experimental: as §1
(§3) The MTT colorimetric method was performed to evaluate cytotoxic activity of the isolated compounds against human epidermoid carcinoma (KB; ATCC CCL17), human cervical carcinoma (HeLa S3; ATCC CCL2-2), human colon adenocarcinoma (HT-29; ATCC HTB-38), human breast adenocarcinoma (MCF-7; ATCC HTB-22), and human hepatocellular carcinoma (Hep G2; ATCC HB-8065) cell lines according to the previous method. The cancer cells were cultured in MEM containing 10% fetal bovine serum in the presence of 100 U/mL penicillin and 100 μg/mL streptomycin sulphate (Gibco, Rockville, MD, USA), seeded in a 96-well plate (3000 cells/well), and pre-incubated at 37 °C for 24 h in a 5% CO2 humidified atmosphere. The tested compounds with serial concentrations (0.3–100 μM) were added and incubated for a further 72 h in the same condition. At the end of treatment, 20 µL of MTT solution (5 mg/mL in PBS, Sigma, St. Louis, MI, USA) was added to each well and further incubated for 3 h. After centrifugation at 1400 rpm for 5 min at 4 °C, the supernatant was decanted and DMSO (100 µL/well) was added to allow formazan product solubilization, which was subsequently measured by a microplate reader (Tecan Trading AG, Switzerland) at wavelength 550 nm. Control cells were treated with 0.1% DMSO. Doxorubicin (tested concentrations: 0.01–3.0 μM, Sigma) was used as the positive control. The results are expressed as the mean values of three replicates for three independent experiments. IC50 values were determined by graphical analysis using SigmaPlot 10 (Systat Software Inc., San Jose, CA, USA), obtained by plotting the cell viability percentage versus sample concentration.

[4] = tested on: KB (human epidermoid carcinoma); experiment: MTT cytotoxic activity assay, KB; format: cell-based; conditions: 72 h, mean ± SEM of three replicates
Experimental: as §1, §3

[5] = tested on: MCF-7 (human breast adenocarcinoma); experiment: MTT cytotoxic activity assay, MCF-7; format: cell-based; conditions: MCF7, 72 h, mean ± SEM of three replicates
Experimental: as §1, §2

[6] = tested on: HT-29 (human colon adenocarcinoma); experiment: MTT cytotoxic activity assay, HT-29; format: cell-based; conditions: 72 h, mean ± SEM of three replicates
Experimental: as §1, §2

SMILES | COX-1 inhibitory activity, % inhibition [1] | IC50 [2] | IC50 [3] | IC50 [4] | IC50 [5] | IC50 [6]
C=C(C)[C@H]1C[C@@H](C[C@@]23C[C@@H](/C=C/C(C)C)C(C)(C)[C@@](CC=C(C)C)(C2=O)c2oc4cc(O)c(O)cc4c(=O)c2C3=O)C1(C)C [picrorhizone H] | 35.2 ± 9.6% | – | – | – | – | –
COc1cccc2c1C(=O)c1c(O)c3c(c(O)c1C2=O)C[C@@](O)(C(=O)CO)C[C@@H]3O[C@H]1C[C@H](N)[C@H](O)[C@H](C)O1 [Doxorubicin, reference compound] | – | 1000 ± 170 nM | 150 ± 20 nM | 20 ± 10 nM | 1290 ± 20 nM | 590 ± 30 nM
